In EP0133795B1 (THE McLEAN HOSPITAL CORPORATION, priority 1983, dated 1985):

Key:
[1] = tested on: general motor activity of mice; assay: General locomotor activity of mice (Stoelting electronic activity monitor); assay type: in vivo, Balb/c mice
general motor activity = assay: General motor activity of rats (dose-response, Fig. 1); assay type: in vivo; conditions: n = 6 per dose
Source text: • Figures 1A and 1 B show the effects of cholesteryl-GABA on general motor activity.

[2] = tested on: bicuculline-induced epileptic seizures; assay: Delay of onset of bicuculline-induced seizures (anticonvulsant activity); assay type: in vivo, mouse; conditions: for Onset of seizures: % Saline Control / Survival Time: % Saline Control: 24 hr pretreatment
[3] = n-Octanol/water partition coefficient; assay type: physicochemical; conditions: 5 ml n-octanol / 5 ml water, stirring 18 hours
Protocol: A Partition Coefficient was defined by the equation: [formula] representing the amount of the ester taken up per ml of n-octanol relative to the amount of the same compound taken up per ml of water.
The n-octanol/water partition coefficients were obtained from measurements of the distribution of 1, 3, 5 and 6 pmol quantities of each ^14C-labeled compound into a mixture of 5 ml of n-octanol and 5 ml water. At each concentration, the amount of labeled compound in the aqueous and n-octanol phases was calculated from the amount of radioactive material present after stirring for 18 hours.

[4] = 16 mg/kg, bicuculline 0.3 mg/kg
[5] = 30 mg/kg, bicuculline 0.3 mg/kg
[6] = 84 mg/kg, bicuculline 0.3 mg/kg, mean ± SEM, n ≥ 6

Substance: (3-Cholesteryl)-gamma-Aminobutyrate [Compound 6]
- In Vivo Inhibition of General Motor Activity ([1]; graded 0-5): 5
- activity in the general motor activity test (in words) ([1]; i.p., mice): active
- i.p. injected dose at which motor activity was reduced by 50% ([1]; mice, Fig. 1, n = 6 per dose, 60 min): 17 µmol/kg
- i.p. injected dose at which motor activity was reduced by 50% (general motor activity): 8 µmol/kg
- Onset of seizures: % Saline Control ([2]; 3 mg/kg, bicuculline 0.3 mg/kg): 120 ± 6 % Saline Control
- Survival Time: % Saline Control ([2]; 3 mg/kg, bicuculline 0.3 mg/kg): 95 ± 15 % Saline Control
- Onset of seizures: % Saline Control [2, 4]: 129 ± 4 % Saline Control
- Survival Time: % Saline Control [2, 4]: 101 ± 20 % Saline Control
- Onset of seizures: % Saline Control [2, 5]: 130 ± 8 % Saline Control
- Survival Time: % Saline Control [2, 5]: 104 ± 18 % Saline Control
- Onset of seizures: % Saline Control [2, 6]: 137 ± 7 % Saline Control
- Survival Time: % Saline Control [2, 6]: 109 ± 9 % Saline Control
- delay of onset of seizures ([2]; 24 hr after i.p. injection of 30 mg/kg, bicuculline 0.3 mg/kg): 30%
- In Vivo Delay of Time of Onset of Bicuculline-induced seizures ([2]; graded 0-5): 5
- KOW: Octanol/Water Partition Coefficient [3]: 110.
